Patent publication US20220409727A1, “Metal Complexes Bearing Bisstyryl-Bipyridine Ligand and Their Use as Photosensitizer Agent in One and Two-Photon Photodynamic Therapy” (Paris Sciences et Lettres, priority 2019, published 2022)
Read-outs that look alike come from different tables or passages of the source.

Tests used:
[1] = Luminescence quantum yield measurements; format: physicochemical; parameters: key: fraction, relative to [Ru(bipy)3]Cl2 reference in CH3CN (Φem=5.9%); settings: CH3CN, room temperature, excitation at 355 nm
How it was run: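 Samples in CH3CN at absorbance 0.1 at 355 nm, excited at 355 nm by an Nd-YAG-pumped OPO with emission collected at right angle onto a monochromator and CCD. Quantum yield calculated relative to [Ru(bipy)3]Cl2 in CH3CN (Φem=5.9%), correcting for absorbed light fraction, integrated emission and refractive index.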

[2] = tested on: mouse colon carcinoma (CT-26) cells
Procedure: The human glioblastoma astrocytoma (U373) cell line was cultured in MEM medium supplemented with 10% FBS, 1% NEAA (non-essential amino-acids) and 1% penicillin/streptomycin. […] The human retinal epithelial cells (RPE-1, non-cancerous cells immortalized with hTERT) were cultured in DMEM-F12 medium supplemented with 10% FBS and 1% penicillin/streptomycin. All cell lines were obtained from the American Type Culture Collection (ATCC) and cultured at 37° C. and 5% CO2. Before an experiment, the cells were passaged three times.
The cytotoxicity of the compounds was assessed by measuring cell viability using a fluorometric resazurin assay. The cultivated cells were seeded in triplicates in 96 well plates with a density of 4000 cells per well in 100 μL of media. After 24 h, the medium was removed and the cells were treated with increasing concentrations of the compound diluted in cell media achieving a total volume of 200 μL. The cells were incubated with the compound for 4 h. After this time, the media was removed and replaced with 200 μL of fresh medium. For the phototoxicity studies, the cells were exposed to light with an Atlas Photonics LUMOS BIO irradiator. Each well was constantly illuminated with either a 480 nm or 540 nm irradiation. During this time, the temperature was maintained constantly at 37° C. The cells were grown in the incubator for additional 44 h. For the determination of the dark cytotoxicity, the cells were not irradiated and after the medium exchange directly incubated for 44 h. After this time, the medium was replaced with fresh medium containing resazurin with a final concentration of 0.2 mg/mL. After 4 h incubation, the amount of the fluorescent product resorufin was determined upon excitation at 540 nm and measurement its emission at 590 nm using a SpectraMax M2 Microplate Reader (Molecular Devices).
The obtained data was analyzed with the GraphPad Prism software.

[3] = Singlet oxygen measurement, direct evaluation (1O2 luminescence at 1270 nm); format: physicochemical
How it was run: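 Air-saturated CH3CN or D2O solutions (A450 = 0.2) irradiated with 450 nm LED at varied intensities; 1O2 emission at 1270 nm recorded 1100–1400 nm with cooled germanium detector. Quantum yield from slope of integrated peak area versus intensity, absorbance-corrected, relative to Rose Bengal (Φ=76%).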

[4] = tested on: HeLa MCTS; assay: (Photo-)cytotoxicity on 3D multicellular tumor spheroids (ATP, CellTiter-Glo 3D); format: cell-based, human; settings: for phototoxicity in HeLa MCTS: 1 Photon and 2 Photons irradiation, compared with compounds 4-6, 8, 10; for PI (1-Photon): dark vs 1-Photon irradiation (500 nm, 10 J/cm^2); for PI (2-Photon): dark vs 2-Photon irradiation (800 nm, 10 J/cm^2)
How it was run: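 HeLa spheroids grown on agarose from 3000 cells/well over 2–3 days, then treated with compound (2% DMSO) for 12 h. Spheroids kept dark or irradiated at 500 nm one-photon or 800 nm two-photon (10 J/cm^2 each), then incubated 48 h more. Viability read as ATP by luminescence.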

[5] = Singlet oxygen measurement, indirect evaluation (RNO absorbance); format: physicochemical; settings: indirect
How it was run: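 Complex (absorbance 0.2 in air-saturated CH3CN with RNO 24 μM, imidazole 12 mM; or 0.1 in air-saturated PBS with RNO 20 μM, histidine 10 mM) irradiated for varying times. RNO bleaching (A0−A) at 420 nm (CH3CN) or 440 nm (PBS) plotted against time; slope with absorbance correction gives singlet oxygen quantum yield.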

[6] = tested on: human cervical carcinoma (HeLa) cells; assay: (Photo-)cytotoxicity on 2D cell monolayers, resazurin assay, HeLa; format: cell-based; settings: for PI (480 nm): dark vs 480 nm (10 min, 3.1 J/cm^2); for PI (540 nm): dark vs 540 nm (40 min, 9.5 J/cm^2)
Source text: Before an experiment, the cells were passaged three times.

[7] = 1-Photon irradiation (500 nm, 10 J/cm^2), read-out: IC50 1-Photon irradiation (500 nm, 10 J/cm^2)
[8] = 2-Photon irradiation (800 nm, 10 J/cm^2, section interval of 5 μm), read-out: IC50 2-Photon irradiation (800 nm, 10 J/cm^2)
[9] = dark, 12 h incubation, read-out: IC50 dark
[10] = dark, 4 h incubation, compounds 1-3 as chloride salts, read-out: IC50 dark
[11] = read-out: IC50 480 nm (10 min, 3.1 J/cm^2), irradiation 480 nm (10 min, 3.1 J/cm^2), compounds 1-3 as chloride salts
[12] = read-out: IC50 540 nm (40 min, 9.5 J/cm^2), irradiation 540 nm (40 min, 9.5 J/cm^2), compounds 1-3 as chloride salts

Structure (SMILES) | ϕem (Luminescence Quantum Yield) [1] | IC50 [2] [µM] | Singlet oxygen quantum yield, direct 450 nm CH3CN [3] [%] | IC50 [4, 7] [µM] | phototoxicity in HeLa MCTS [4] | IC50 [4, 8] [µM] | PI (1-Photon) [4] | PI (2-Photon) [4] | IC50 [4, 9] [µM] | Singlet oxygen quantum yield, indirect 450 nm CH3CN [5] [%] | Singlet oxygen quantum yield, indirect 450 nm PBS [5] [%] | Singlet oxygen quantum yield, indirect 540 nm CH3CN [5] [%] | Singlet oxygen quantum yield, indirect 540 nm PBS [5] [%] | PI (480 nm) [6] | PI (540 nm) [6] | IC50 [6, 10] [µM] | IC50 [6, 11] [µM] | IC50 [6, 12] [µM]
COc1ccc(C=Cc2ccnc(-c3cc(C=Cc4ccc(OC)cc4)ccn3)c2)cc1.F[P-](F)(F)(F)(F)F.F[P-](F)(F)(F)(F)F.[Ru+2].c1ccc(-c2ccnc3c2ccc2c(-c4ccccc4)ccnc23)cc1.c1ccc(-c2ccnc3c2ccc2c(-c4ccccc4)ccnc23)cc1 [Compound 11, [Ru(4,7-Diphenyl-1,10-phenanthroline)2((E,E′)-4,4′-Bis[p-methoxystyryl]-2,2′-bipyridine)][PF6]2] | 0.027 | 0.5 ± 0.2 | 66 | 3.8 ± 0.4 | much higher phototoxicity | 0.8 ± 0.5 | 7.7 | 36.6 | 29.3 ± 2.9 | 73 | 7 | 72 | 5 | 27.5 | 23.6 | 16.5 ± 0.8 | 0.6 ± 0.3 | 0.7 ± 0.5
COc1ccc(/C=C/c2ccnc(-c3cc(/C=C/c4ccc(OC)cc4)ccn3)c2)cc1.F[P-](F)(F)(F)(F)F.F[P-](F)(F)(F)(F)F.[Ru+2].c1cnc2c(c1)ccc1cccnc12.c1cnc2c(c1)ccc1cccnc12 [Compound 9, [Ru(phen)2((E,E′)-4,4′-Bis[p-methoxystyryl]-2,2′-bipyridine)][PF6]2] | 0.019 | 1.1 ± 0.5 | 75 | 7.5 ± 0.2 | much higher phototoxicity | 1.2 ± 0.3 | >40.0 | >250.0 | > 300 | 82 | 9 | 79 | 8 | >66.7 | >83.3 | > 100 | 1.5 ± 0.6 | 1.2 ± 0.7
CN(C)c1ccc(/C=C/c2ccnc(-c3cc(/C=C/c4ccc(N(C)C)cc4)ccn3)c2)cc1.F[P-](F)(F)(F)(F)F.F[P-](F)(F)(F)(F)F.[Ru+2].c1ccc(-c2ccccn2)nc1.c1ccc(-c2ccccn2)nc1 [Compound 6, [Ru(bipy)2((E,E′)-4,4′-Bis[p-(N,N-dimethylamino)styryl]-2,2′-bipyridine)][PF6]2] | 0.005 | 2.4 ± 0.5 | 46 | 33.8 ± 3.4 |  | 26.5 ± 2.9 | >8.9 | >11.3 | > 300 | 53 | 2 | 38 | 2 | >18.9 | >17.2 | > 100 | 5.3 ± 0.6 | 5.8 ± 0.9
